# Measured values as given in the NIST ThermoML archive (doi:10.1016/j.jct.2016.03.009).
# ± gives the expanded uncertainty stated by the source.
# Conditions: Crystal 2; DSC
smiles,measurement,value
[Ag+].[S-2].[S-2].[Sb+3] [antimony(III) silver(I) sulfide],Triple point temperature,648.6 ± 2.1 K
